Measurements: ChEMBL document CHEMBL1201862, “PubChem BioAssay data set” (2004)
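Each compound was tested at five concentrations against cells in 96-well plates for 48 hours. The concentration for 50% growth inhibition is given as GI50.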 Active and inactive are the calls of the source. Rule as the data show it: active = GI50 up to about 1.1 µM and inactive = higher.

Legend:
Assay in all cases: growth of human tumour cells (NCI), 48 h
A549 = tested on: A549
SF-295 = tested on: SF-295
MCF7 = tested on: MCF7
NCI-H460 = tested on: NCI-H460
OVCAR-3 = tested on: OVCAR-3
RPMI-8226 = tested on: RPMI-8226
T47D = tested on: T47D
HCT-116 = tested on: HCT-116
SW-620 = tested on: SW-620
U-251 = tested on: U-251
NCI-H23 = tested on: NCI-H23
HT-29 = tested on: HT-29
CAKI-1 = tested on: CAKI-1
RXF 393 = tested on: RXF 393
UACC-257 = tested on: UACC-257
SNB-75 = tested on: SNB-75
ACHN = tested on: ACHN
HOP-62 = tested on: HOP-62
HCT-15 = tested on: HCT-15
MDA-N = tested on: MDA-N
EKVX = tested on: EKVX
SN12C = tested on: SN12C
IGROV-1 = tested on: IGROV-1
NCI-H522 = tested on: NCI-H522
SR = tested on: SR
Hs-578T = tested on: Hs-578T
SF-268 = tested on: SF-268
SK-MEL-5 = tested on: SK-MEL-5
HL-60 = tested on: HL-60
HOP-92 = tested on: HOP-92
K562 = tested on: K562
NCI/ADR-RES = tested on: NCI/ADR-RES
MOLT-4 = tested on: MOLT-4
SF-539 = tested on: SF-539
MDA-MB-231 = tested on: MDA-MB-231
OVCAR-4 = tested on: OVCAR-4
COLO 205 = tested on: COLO 205
SK-OV-3 = tested on: SK-OV-3
TK-10 = tested on: TK-10
MDA-MB-435 = tested on: MDA-MB-435
UO-31 = tested on: UO-31
Malme-3M = tested on: Malme-3M
786-0 = tested on: 786-0
OVCAR-5 = tested on: OVCAR-5
PC-3 = tested on: PC-3
SNB-19 = tested on: SNB-19
DU-145 = tested on: DU-145
SK-MEL-2 = tested on: SK-MEL-2
UACC-62 = tested on: UACC-62
BT-549 = tested on: BT-549
LOX IMVI = tested on: LOX IMVI
KM12 = tested on: KM12
OVCAR-8 = tested on: OVCAR-8
NCI-H226 = tested on: NCI-H226
CCRF-CEM = tested on: CCRF-CEM
SK-MEL-28 = tested on: SK-MEL-28
M14 = tested on: M14
A498 = tested on: A498

For `COc1ccc(OC)c(-c2cn3c(n2)sc2ccccc23)c1`, the GI50 (A549) was > 100 µM (inactive), the GI50 (SF-295) was 95.3 µM (inactive) and the GI50 (MCF7) was 3.44 µM (inactive). For the same compound, the GI50 (NCI-H460) was > 100 µM (inactive), the GI50 (OVCAR-3) was > 100 µM (inactive) and the GI50 (RPMI-8226) was > 100 µM (inactive). The GI50 (T47D) was > 100 µM (inactive), the GI50 (HCT-116) was > 100 µM (inactive) and the GI50 (SW-620) was > 100 µM (inactive). The GI50 (U-251) was > 100 µM (inactive), the GI50 (NCI-H23) was > 100 µM (inactive) and the GI50 (HT-29) was 8.26 µM (inactive). For the same compound, the GI50 (CAKI-1) was > 100 µM (inactive), the GI50 (RXF 393) was > 100 µM (inactive) and the GI50 (UACC-257) was > 100 µM (inactive). The GI50 (SNB-75) was > 100 µM (inactive), the GI50 (ACHN) was > 100 µM (inactive) and the GI50 (HOP-62) was > 100 µM (inactive). The GI50 (HCT-15) was greater than 100 µM, the GI50 (MDA-N) was > 100 µM (inactive) and the GI50 (EKVX) was > 100 µM (inactive). The GI50 (SN12C) was > 100 µM (inactive), the GI50 (IGROV-1) was > 100 µM (inactive) and the GI50 (NCI-H522) was > 100 µM (inactive). For the same compound, the GI50 (SR) was > 100 µM (inactive), the GI50 (Hs-578T) was 39.7 µM (inactive) and the GI50 (SF-268) was > 100 µM (inactive). For the same compound, the GI50 (SK-MEL-5) was 65 µM (inactive), the GI50 (HL-60) was > 100 µM (inactive) and the GI50 (HOP-92) was 15.8 µM (inactive). The GI50 (K562) was > 100 µM (inactive), the GI50 (NCI/ADR-RES) was > 100 µM (inactive) and the GI50 (MOLT-4) was > 100 µM (inactive). For the same compound, the GI50 (SF-539) was > 100 µM (inactive), the GI50 (MDA-MB-231) was > 100 µM (inactive) and the GI50 (OVCAR-4) was > 100 µM (inactive). For the same compound, the GI50 (COLO 205) was > 100 µM (inactive), the GI50 (SK-OV-3) was > 100 µM (inactive) and the GI50 (TK-10) was > 100 µM (inactive). The GI50 (MDA-MB-435) was > 100 µM (inactive), the GI50 (UO-31) was > 100 µM (inactive) and the GI50 (Malme-3M) was > 100 µM (inactive). The GI50 (786-0) was 58.5 µM (inactive), the GI50 (OVCAR-5) was > 100 µM (inactive) and the GI50 (PC-3) was 30.6 µM (inactive). For the same compound, the GI50 (SNB-19) was > 100 µM (inactive), the GI50 (DU-145) was > 100 µM (inactive) and the GI50 (SK-MEL-2) was > 100 µM (inactive). For the same compound, the GI50 (UACC-62) was 64.1 µM (inactive), the GI50 (BT-549) was > 100 µM (inactive) and the GI50 (LOX IMVI) was > 100 µM (inactive). For the same compound, the GI50 (KM12) was > 100 µM (inactive), the GI50 (OVCAR-8) was 94.8 µM (inactive) and the GI50 (NCI-H226) was > 100 µM (inactive). The GI50 (CCRF-CEM) was > 100 µM (inactive).
With `O=C(c1ccc(Cl)cc1)N(C(=O)N1CCC(c2ccccc2)CC1)c1ccccc1` the GI50 (SF-295) was 31 µM (inactive), the GI50 (MCF7) was 39.4 µM (inactive) and the GI50 (OVCAR-3) was 44.8 µM (inactive). The GI50 (SK-MEL-28) was 45.2 µM (inactive), the GI50 (RPMI-8226) was 13.7 µM (inactive) and the GI50 (T47D) was 11.1 µM (inactive). For the same compound, the GI50 (HCT-116) was 17.5 µM (inactive), the GI50 (SW-620) was 92 µM (inactive) and the GI50 (U-251) was 39.5 µM (inactive). The GI50 (NCI-H23) was 23.9 µM (inactive), the GI50 (HT-29) was 31.3 µM (inactive) and the GI50 (CAKI-1) was 54.1 µM (inactive). The GI50 (RXF 393) was 11.9 µM (inactive), the GI50 (M14) was 18.4 µM (inactive) and the GI50 (UACC-257) was 25.4 µM (inactive). The GI50 (SNB-75) was 1.83 µM (inactive), the GI50 (ACHN) was 57.8 µM (inactive) and the GI50 (HCT-15) was 15 µM. The GI50 (MDA-N) was 39.3 µM (inactive), the GI50 (EKVX) was 10.4 µM (inactive) and the GI50 (SN12C) was 99.5 µM (inactive). For the same compound, the GI50 (IGROV-1) was 17.9 µM (inactive), the GI50 (Hs-578T) was 24.2 µM (inactive) and the GI50 (SF-268) was 82 µM (inactive). The GI50 (SK-MEL-5) was 15.4 µM (inactive), the GI50 (HL-60) was 17.1 µM (inactive) and the GI50 (K562) was 32.1 µM (inactive). For the same compound, the GI50 (NCI/ADR-RES) was 16.6 µM (inactive), the GI50 (MOLT-4) was 21.8 µM (inactive) and the GI50 (SF-539) was 65 µM (inactive). For the same compound, the GI50 (A498) was 20.4 µM (inactive), the GI50 (MDA-MB-231) was 26.1 µM (inactive) and the GI50 (COLO 205) was 33 µM (inactive). For the same compound, the GI50 (SK-OV-3) was > 100 µM (inactive), the GI50 (TK-10) was 30.7 µM (inactive) and the GI50 (MDA-MB-435) was 25.8 µM (inactive). For the same compound, the GI50 (UO-31) was 12.1 µM (inactive), the GI50 (Malme-3M) was 10.4 µM (inactive) and the GI50 (786-0) was 70.3 µM (inactive). For the same compound, the GI50 (OVCAR-5) was 0.558 µM (active), the GI50 (PC-3) was 6.4 µM (inactive) and the GI50 (SNB-19) was 72.1 µM (inactive). The GI50 (DU-145) was 59 µM (inactive), the GI50 (SK-MEL-2) was 37.2 µM (inactive) and the GI50 (UACC-62) was 31.8 µM (inactive). The GI50 (BT-549) was 19.5 µM (inactive), the GI50 (LOX IMVI) was 28.1 µM (inactive) and the GI50 (KM12) was 11.4 µM (inactive). For the same compound, the GI50 (OVCAR-8) was 33.8 µM (inactive), the GI50 (NCI-H226) was 17.8 µM (inactive) and the GI50 (CCRF-CEM) was 18.9 µM (inactive).
`Clc1ccc(C2Nc3ccccc3C3=NCCN32)cc1` (stereo unspecified) was tested, and the GI50 (A549) was 32.3 µM (inactive), the GI50 (SF-295) was 14.8 µM (inactive) and the GI50 (MCF7) was 22.3 µM (inactive). For the same compound, the GI50 (NCI-H460) was 16.3 µM (inactive), the GI50 (OVCAR-3) was 33.5 µM (inactive) and the GI50 (SK-MEL-28) was 18 µM (inactive). For the same compound, the GI50 (RPMI-8226) was 15.9 µM (inactive), the GI50 (T47D) was 15.6 µM (inactive) and the GI50 (HCT-116) was 12.4 µM (inactive). The GI50 (SW-620) was 24.5 µM (inactive), the GI50 (U-251) was 25.9 µM (inactive) and the GI50 (NCI-H23) was 19.5 µM (inactive). For the same compound, the GI50 (HT-29) was 11.4 µM (inactive), the GI50 (CAKI-1) was 26.5 µM (inactive) and the GI50 (RXF 393) was 21.1 µM (inactive). The GI50 (M14) was 15.1 µM (inactive), the GI50 (UACC-257) was 17.5 µM (inactive) and the GI50 (ACHN) was 35.3 µM (inactive). For the same compound, the GI50 (HOP-62) was 23.4 µM (inactive), the GI50 (HCT-15) was 34.3 µM and the GI50 (MDA-N) was 17.4 µM (inactive). For the same compound, the GI50 (EKVX) was 25.6 µM (inactive), the GI50 (SN12C) was 29.8 µM (inactive) and the GI50 (IGROV-1) was 14.2 µM (inactive). For the same compound, the GI50 (SR) was 21 µM (inactive), the GI50 (Hs-578T) was 33.3 µM (inactive) and the GI50 (SF-268) was 20.7 µM (inactive). The GI50 (SK-MEL-5) was 15.7 µM (inactive), the GI50 (HL-60) was 22.1 µM (inactive) and the GI50 (HOP-92) was 8.18 µM (inactive). The GI50 (K562) was 15.7 µM (inactive), the GI50 (NCI/ADR-RES) was 19.5 µM (inactive) and the GI50 (MOLT-4) was 36.4 µM (inactive). The GI50 (SF-539) was 15.6 µM (inactive), the GI50 (A498) was 22.9 µM (inactive) and the GI50 (MDA-MB-231) was 23.5 µM (inactive). For the same compound, the GI50 (OVCAR-4) was 30.7 µM (inactive), the GI50 (COLO 205) was 13 µM (inactive) and the GI50 (SK-OV-3) was 26.1 µM (inactive). For the same compound, the GI50 (TK-10) was 16.8 µM (inactive), the GI50 (MDA-MB-435) was 16.6 µM (inactive) and the GI50 (UO-31) was 27.3 µM (inactive). The GI50 (Malme-3M) was 15.4 µM (inactive), the GI50 (786-0) was 18.5 µM (inactive) and the GI50 (OVCAR-5) was 29.7 µM (inactive). The GI50 (PC-3) was 55.3 µM (inactive), the GI50 (SNB-19) was 27.9 µM (inactive) and the GI50 (DU-145) was 39.8 µM (inactive). For the same compound, the GI50 (SK-MEL-2) was 19.1 µM (inactive), the GI50 (UACC-62) was 16.9 µM (inactive) and the GI50 (BT-549) was 24.3 µM (inactive). For the same compound, the GI50 (LOX IMVI) was 17.2 µM (inactive), the GI50 (KM12) was 18.3 µM (inactive) and the GI50 (OVCAR-8) was 18.3 µM (inactive). The GI50 (CCRF-CEM) was 28.4 µM (inactive).
